Measured values published in ChEMBL document CHEMBL4406913, “INCB050465 (Parsaclisib), a Novel Next-Generation Inhibitor of Phosphoinositide 3-Kinase Delta (PI3Kδ)” (ACS Med Chem Lett, 2019).

How the values were obtained:
[1] = system: Pfeiffer; test: Cytotoxicity against human Pfeiffer cells assessed as reduction in cell viability incubated for 4 days by [3H]-thymidine incorporation based liquid scintillation counter method; assay type: functional
[2] = molecular target: T1, Phosphatidylinositol 4,5-bisphosphate 3-kinase catalytic subunit delta isoform (Homo sapiens, UniProt O00329); test: Inhibition of PI3Kdelta in human whole blood assessed as reduction in anti-IgE antibody-induced CD63 expression by flow cast kit method; assay type: tissue-based
T1 sequence (O00329 whole entry): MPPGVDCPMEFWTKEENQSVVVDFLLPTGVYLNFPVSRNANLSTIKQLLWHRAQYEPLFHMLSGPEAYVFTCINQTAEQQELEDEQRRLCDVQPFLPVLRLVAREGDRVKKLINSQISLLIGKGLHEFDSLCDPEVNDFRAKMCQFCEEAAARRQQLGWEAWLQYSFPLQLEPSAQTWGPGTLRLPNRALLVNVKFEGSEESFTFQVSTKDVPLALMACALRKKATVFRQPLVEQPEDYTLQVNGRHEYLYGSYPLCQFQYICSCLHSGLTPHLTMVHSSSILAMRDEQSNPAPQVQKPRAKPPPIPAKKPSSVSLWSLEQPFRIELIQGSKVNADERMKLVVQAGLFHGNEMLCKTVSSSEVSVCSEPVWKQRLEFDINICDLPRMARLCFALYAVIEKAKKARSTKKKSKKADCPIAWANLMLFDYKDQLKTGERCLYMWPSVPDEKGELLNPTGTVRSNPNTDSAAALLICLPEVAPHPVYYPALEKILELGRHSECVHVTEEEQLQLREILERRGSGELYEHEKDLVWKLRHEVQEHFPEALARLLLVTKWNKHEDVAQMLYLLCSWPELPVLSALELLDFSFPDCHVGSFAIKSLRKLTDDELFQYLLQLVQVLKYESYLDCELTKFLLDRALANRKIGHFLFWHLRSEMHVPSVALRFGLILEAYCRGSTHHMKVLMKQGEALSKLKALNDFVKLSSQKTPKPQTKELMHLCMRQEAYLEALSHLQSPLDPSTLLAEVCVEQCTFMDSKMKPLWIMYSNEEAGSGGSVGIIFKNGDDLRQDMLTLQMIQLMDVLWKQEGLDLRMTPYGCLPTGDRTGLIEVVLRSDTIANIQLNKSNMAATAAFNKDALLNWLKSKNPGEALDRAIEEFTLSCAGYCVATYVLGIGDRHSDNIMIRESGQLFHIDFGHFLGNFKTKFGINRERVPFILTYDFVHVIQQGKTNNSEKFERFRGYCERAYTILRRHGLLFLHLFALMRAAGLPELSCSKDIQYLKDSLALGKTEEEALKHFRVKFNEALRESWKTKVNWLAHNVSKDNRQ

[3] = molecular target: Voltage-gated inwardly rectifying potassium channel KCNH2 (Homo sapiens, UniProt Q12809); test: Inhibition of human ERG expressed in HEK293 cells by voltage patch clamp assay; assay type: cell-based
Voltage-gated inwardly rectifying potassium channel KCNH2, sequence (Q12809 whole entry): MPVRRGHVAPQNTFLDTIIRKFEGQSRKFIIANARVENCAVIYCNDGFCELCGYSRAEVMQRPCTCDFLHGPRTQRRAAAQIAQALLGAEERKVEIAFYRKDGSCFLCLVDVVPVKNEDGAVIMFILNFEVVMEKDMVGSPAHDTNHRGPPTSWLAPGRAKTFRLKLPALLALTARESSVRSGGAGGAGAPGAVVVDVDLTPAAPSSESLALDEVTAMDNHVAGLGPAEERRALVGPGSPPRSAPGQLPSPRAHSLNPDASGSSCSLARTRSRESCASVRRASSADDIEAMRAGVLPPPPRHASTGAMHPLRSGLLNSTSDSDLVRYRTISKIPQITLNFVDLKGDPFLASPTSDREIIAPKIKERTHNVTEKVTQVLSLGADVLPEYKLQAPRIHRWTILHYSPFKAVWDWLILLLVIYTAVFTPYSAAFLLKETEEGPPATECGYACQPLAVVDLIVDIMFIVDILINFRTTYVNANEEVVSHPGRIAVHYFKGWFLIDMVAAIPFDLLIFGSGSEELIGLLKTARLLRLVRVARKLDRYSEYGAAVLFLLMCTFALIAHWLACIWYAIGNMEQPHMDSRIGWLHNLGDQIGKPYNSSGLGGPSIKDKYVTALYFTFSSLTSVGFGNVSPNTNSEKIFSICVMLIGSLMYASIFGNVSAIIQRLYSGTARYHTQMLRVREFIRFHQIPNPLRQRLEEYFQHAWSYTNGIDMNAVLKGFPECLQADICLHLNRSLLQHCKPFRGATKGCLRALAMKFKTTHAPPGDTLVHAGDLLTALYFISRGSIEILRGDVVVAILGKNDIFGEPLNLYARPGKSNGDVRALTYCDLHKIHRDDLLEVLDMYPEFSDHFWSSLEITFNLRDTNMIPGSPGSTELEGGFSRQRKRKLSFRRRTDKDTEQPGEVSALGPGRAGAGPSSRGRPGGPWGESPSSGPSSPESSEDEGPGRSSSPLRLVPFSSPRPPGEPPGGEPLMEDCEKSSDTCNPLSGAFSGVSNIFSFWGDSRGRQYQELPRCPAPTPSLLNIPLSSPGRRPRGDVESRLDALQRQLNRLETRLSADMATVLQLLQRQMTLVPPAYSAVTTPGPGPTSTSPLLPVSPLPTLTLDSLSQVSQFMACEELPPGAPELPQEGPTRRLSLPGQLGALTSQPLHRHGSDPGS

[4] = Oral bioavailability in rat at 4 mg/kg measured for 24 hrs by LC-MS/MS analysis; assay type: ADME, organism-based; conditions: in vivo
[5] = Terminal half life in cynomolgus monkey at 2 mg/kg, iv measured for 24 hrs by LC-MS/MS analysis; assay type: ADME, organism-based, Macaca fascicularis; conditions: in vivo, read-out: beta t1/2 (converted)
[6] = molecular target: T1, Phosphatidylinositol 4,5-bisphosphate 3-kinase catalytic subunit delta isoform
Description: Inhibition of PI3Kdelta (unknown origin) using D-myophosphatidylinositol 4,5-bisphosphate as substrate incubated for 120 mins by [gamma-33P]ATP based SPA assay

**Q.** What does the source list for CCOc1c([C@H](C)n2nc(C)c3c(N)ncnc32)cc(Cl)c(F)c1[C@@H]1CNC(=O)C1 [PARSACLISIB]?
**A.** IC50 [1]: 2.5 nM; IC50 [2]: 2 nM; IC50 [3]: 75000 nM; bioavailability [4]: 74%; half-life [5]: 7.3 h; IC50 [6]: < 1 nM
